According to US20210163453A1, “DERIVATIVES OF PAPAVERINE THAT ARE EFFECTIVE HYPOXIC TUMOR RADIOSENSITIZERS” (Ohio State Innovation Foundation, priority 2018, published 2021):

What was measured:
mitochondrial complex 1 = assay: Seahorse OCR inhibition of PPV derivatives, normalized to PPV; assay type: cell-based; settings: Seahorse; for Inhibitory activity OCR % of PPV: OCR inhibition at 10 μM concentration, normalized to PPV
Method: FIGS. 7A-7D show OCR and cellular toxicity data. […]. Bars represent mean OCR and PDE10 inhibitory activities from at least 5 (OCR) or 3 (PDE) replicates. All experiments were repeated at least twice. […] Values are mean+−SEM.
(§1) Seahorse analysis of the OCR. Oxygen consumption rate (OCR) was measured using Seahorse XF96 Flux Analyzer (Agilent Technologies). The cells were seeded to attach overnight, wells were washed with pre-warmed XF Calibrant (Agilent Technologies) and the replaced with unbuffered Assay Medium (pH 7.4, 5 mM glucose, 1 mM L-glutamine). The plates were incubated at 37° C. in a CO2-free incubator for 2 hours prior to assay. For succinate rescue assay, cells were permeabilized using XF Plasma Membrane Permeabilizer Reagent (XF PMP, Agilent Technologies) according to the manufacturer's instructions. The OCR rate was measured in 1× Mitochondrial Assay Solution (MAS) (70 mM sucrose, 220 mM mannitol, 10 mM KH2PO4, 5 mM MgCl2, 2 mM Hepes, 0.6% (w/v) fatty acid-free BSA and 1 mM EGTA; pH 7.4). After baseline oxygenation was established, 1 μM rotenone or 10 μM PPV was injected at time A, followed by 5 mM succinate at time B. Error bars represent standard deviation. For the washout experiment, EO771 cells were seeded overnight, then treated with 10 μM PPV or 1 μM rotenone 3 hours prior to OCR measurement. Media was replaced 1 and 2 hours before measurement and OCR reported.
Because PPV's effect on mitochondrial function is independent of cAMP levels it was reasoned that there are two activities in PPV, one inhibiting complex 1 and one inhibiting PDE10A that may reside in different parts of the molecule. The structure activity relationship of PPV relative to two assays was assessed: inhibition of cellular OCR by Seahorse, and inhibition of PDE10A by purified enzyme activity in multiwell plate (PDE10A activity assay kit, BPS Bioscience). Because PPV can compete with rotenone as complex 1 inhibitors, it was reasoned that they may be binding the same site and therefore the structures would be similar relative to the mitochondrial binding target. […] Because the top was a planar structure similar to that of rotenone, and they compete with each other for the same binding pocket on complex 1 (FIG. 10) the lower portion of the molecule and how it may resemble rotenone were investigated in more detail. It was established that flexible linkage was preferred for mitochondrial activity and bulky adducts to the lower benzene ring may block it (FIG. 7C). […] These lead compounds were synthesized from commercial precursors and purified on silica gel column. Structures were confirmed by ^1H NMR and found to be >95% pure by HPLC.

PDE10A = biological target: T1, PDE10A (Homo sapiens, UniProt Q9Y233); assay: PDE10A enzymatic assay (PDE10A activity assay kit, BPS Bioscience); assay type: biochemical; settings: for Inhibitory activity PDE10A % of PPV: PDE10A inhibition at 1 μM, normalized to PPV
T1 construct: purchased BPS Bioscience
Method: FIGS. 7A-7D show OCR and cellular toxicity data. […] Bars represent mean OCR and PDE10 inhibitory activities from at least 5 (OCR) or 3 (PDE) replicates. All experiments were repeated at least twice. […] Values are mean+−SEM. […]
The structure activity relationship of PPV relative to two assays was assessed: inhibition of cellular OCR by Seahorse, and inhibition of PDE10A by purified enzyme activity in multiwell plate (PDE10A activity assay kit, BPS Bioscience). […] These lead compounds were synthesized from commercial precursors and purified on silica gel column.

[1] = tested on: oxygen consumption (mitochondrial function); assay: Seahorse XF analysis of oxygen consumption in vitro, cell line not stated; assay type: cell-based
Method: as §1

T1 sequence (Q9Y233 267-1055): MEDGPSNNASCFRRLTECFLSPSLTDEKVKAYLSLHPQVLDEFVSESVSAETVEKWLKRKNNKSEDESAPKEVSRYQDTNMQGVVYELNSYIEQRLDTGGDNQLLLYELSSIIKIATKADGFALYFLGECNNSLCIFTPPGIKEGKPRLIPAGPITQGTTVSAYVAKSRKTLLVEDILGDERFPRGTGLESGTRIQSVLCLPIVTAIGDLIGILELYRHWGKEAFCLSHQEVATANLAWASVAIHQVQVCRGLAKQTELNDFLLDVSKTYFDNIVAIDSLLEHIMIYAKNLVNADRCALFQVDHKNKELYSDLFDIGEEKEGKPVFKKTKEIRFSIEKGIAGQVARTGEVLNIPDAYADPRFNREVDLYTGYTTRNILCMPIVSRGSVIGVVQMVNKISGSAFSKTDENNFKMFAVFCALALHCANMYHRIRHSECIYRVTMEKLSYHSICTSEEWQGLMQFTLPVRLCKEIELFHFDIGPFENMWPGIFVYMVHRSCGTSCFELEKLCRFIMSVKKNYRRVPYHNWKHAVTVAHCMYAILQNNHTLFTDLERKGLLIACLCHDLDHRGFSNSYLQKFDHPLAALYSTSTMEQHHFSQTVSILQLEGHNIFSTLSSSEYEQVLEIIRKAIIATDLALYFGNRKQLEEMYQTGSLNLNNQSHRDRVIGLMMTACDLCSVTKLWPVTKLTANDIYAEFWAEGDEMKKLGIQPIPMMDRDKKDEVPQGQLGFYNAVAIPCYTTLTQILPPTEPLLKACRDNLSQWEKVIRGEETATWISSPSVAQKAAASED

| Compound | Inhibitory activity OCR % of PPV (mitochondrial complex 1) | Inhibitory activity PDE10A % of PPV (PDE10A) | activity in cellular OCR assay (mitochondrial complex 1) | activity in PDE10A assay (PDE10A; purified enzyme) | inhibition of oxygen consumption / mitochondrial function in vitro [1] |
| --- | --- | --- | --- | --- | --- |
| COc1cc2c(cc1OC)C(Cc1ccc3c(c1)OCO3)=NCC2 | 5.55 % of PPV | 12.77 % of PPV |  |  |  |
| COc1cc2ccnc(C(=O)c3ccc4c(c3)OCO4)c2cc1OC | 5.55 % of PPV | 51.12 % of PPV |  |  |  |
| COc1cc2ccnc(C(O)c3ccc4c(c3)OCO4)c2cc1OC (stereo not shown) | 12.96 % of PPV | 67.90 % of PPV |  |  |  |
| COc1cc2ccnc(Cc3ccc4c(c3)OCO4)c2cc1OC | 11.11 % of PPV | 69.54 % of PPV |  |  |  |
| COc1cc2ccnc(C(=O)c3cc(OC)c(OC)c(OC)c3)c2cc1OC | 13.63 % of PPV | 63.39 % of PPV |  |  |  |
| COc1cc2ccnc(C(O)c3cc(OC)c(OC)c(OC)c3)c2cc1OC (stereo not shown) | 34.09 % of PPV | 72.86 % of PPV |  |  |  |
| COc1cc2ccnc(Cc3cc(OC)c(OC)c(OC)c3)c2cc1OC | 34.09 % of PPV | 37.37 % of PPV |  |  |  |
| COc1ccc(Cc2nccc3cc(OC)c(OC)cc23)cc1 | 36.36 % of PPV | 79.93 % of PPV |  |  |  |
| COc1ccc(C(=O)c2nccc3cc(OC)c(OC)cc23)cc1 | 29.55 % of PPV | 65.88 % of PPV |  |  |  |
| COc1ccc(C(O)c2nccc3cc(OC)c(OC)cc23)cc1 (stereo not shown) | 70.45 % of PPV | 35.44 % of PPV |  |  |  |
| COc1cc2ccnc(C(=O)c3ccccc3)c2cc1OC | 0 % of PPV | 26.28 % of PPV |  |  |  |
| COc1cc2ccnc(C(O)c3ccccc3)c2cc1OC (stereo not shown) | 12.07 % of PPV | 23.60 % of PPV |  |  |  |
| C=C(C)COc1c(C)cc(C(=O)c2nccc3cc(OC)c(OC)cc23)cc1C | 15.51 % of PPV | 74.38 % of PPV |  |  |  |
| C=C(C)COc1c(C)cc(C(O)c2nccc3cc(OC)c(OC)cc23)cc1C (stereo not shown) | 84.42 % of PPV | 73.33 % of PPV |  |  |  |
| COc1cc2ccnc(Cc3cc(C)c(O)c(C)c3)c2cc1OC | 5.86 % of PPV | 85.02 % of PPV |  |  |  |
| COc1cc2ccnc(C(=O)c3cc(C)c(OC)c(C)c3)c2cc1OC | 0 % of PPV | 50.92 % of PPV |  |  |  |
| COc1cc2ccnc(Cc3cc(C)c(OC)c(C)c3)c2cc1OC | 91.18 % of PPV | 64.65 % of PPV |  |  |  |
| COc1cc2ccnc(C(O)c3cc(C)c(OC)c(C)c3)c2cc1OC (stereo not shown) | 10.35 % of PPV | 29.18 % of PPV |  |  |  |
| COc1cc2ccnc(Cc3cc(C)c(OCC(C)C)c(C)c3)c2cc1OC | 72.88 % of PPV | 29.13 % of PPV |  |  |  |
| C=C(C)COc1c(C)cc(Cc2nccc3cc(OC)c(OC)cc23)cc1C | 74.81 % of PPV | 59.69 % of PPV |  |  |  |
| COc1cc2c(cc1OC)C(Cc1cc(C)c(OC)c(C)c1)=NCC2 | 14.81 % of PPV | 37.27 % of PPV |  |  |  |

| Compound | Inhibitory activity OCR % of PPV (mitochondrial complex 1) | Inhibitory activity PDE10A % of PPV (PDE10A) | activity in cellular OCR assay (mitochondrial complex 1) | activity in PDE10A assay (PDE10A; purified enzyme) | inhibition of oxygen consumption / mitochondrial function in vitro [1] |
| --- | --- | --- | --- | --- | --- |
| COc1cc2c(cc1OC)C(Cc1cc(C)cc(C)c1)=NCC2 | 30.09 % of PPV | 40.00 % of PPV |  |  |  |
| COc1cc2ccnc(C(=O)c3cc(C)cc(C)c3)c2cc1OC | 9.26 % of PPV | 30.52 % of PPV |  |  |  |
| COc1cc2ccnc(C(O)c3cc(C)cc(C)c3)c2cc1OC (stereo not shown) | 23.40 % of PPV | 0 % of PPV |  |  |  |
| COc1cc2ccnc(Cc3cc(C(F)(F)F)cc(C(F)(F)F)c3)c2cc1OC | 33.4 % of PPV | 10.28 % of PPV |  |  |  |
| COc1cc2ccnc(C(=O)c3cc(C(F)(F)F)cc(C(F)(F)F)c3)c2cc1OC | 0 % of PPV | 17.69 % of PPV |  |  |  |
| COc1cc2ccnc(C(O)c3cc(C(F)(F)F)cc(C(F)(F)F)c3)c2cc1OC (stereo not shown) | 48.27 % of PPV | 16.58 % of PPV |  |  |  |
| COc1cc2ccnc(Cc3ccc4ccccc4c3)c2cc1OC | 35.99 % of PPV | 100 % of PPV |  |  |  |
| COc1cc2ccnc(C(=O)c3ccc4ccccc4c3)c2cc1OC | 4.34 % of PPV | 0 % of PPV |  |  |  |
| COc1cc2ccnc(C(O)c3ccc4ccccc4c3)c2cc1OC (stereo not shown) | 29.26 % of PPV | 70.84 % of PPV |  |  |  |
| COc1cc2ccnc(C(=O)c3cccc4ccccc34)c2cc1OC | 31.91 % of PPV | 0 % of PPV |  |  |  |
| COc1cc2ccnc(C(O)c3cccc4ccccc34)c2cc1OC (stereo not shown) | 18 % of PPV | 24.24 % of PPV |  |  |  |
| COc1ccc(CCc2nccc3cc(OC)c(OC)cc23)cc1OC | 5.94 % of PPV | 20.16 % of PPV |  |  |  |
| COc1ccc(-c2nccc3cc(OC)c(OC)cc23)cc1OC | 3.64 % of PPV | 69.55 % of PPV |  |  |  |
| COc1ccc(OCc2nccc3cc(OC)c(OC)cc23)cc1OC | 72.05 % of PPV | 17.18 % of PPV |  |  |  |
| COc1cc2ccnc(COc3cccc4ccccc34)c2cc1OC | 14.19 % of PPV |  |  |  |  |
| COc1cc2ccnc(Cc3ccc(C)c(C)c3)c2cc1OC | 17.43 % of PPV |  |  |  |  |
| COc1cc2ccnc(C(=O)c3ccc(C)c(C)c3)c2cc1OC | 9.64 % of PPV |  |  |  |  |
| COc1cc2ccnc(C(O)c3ccc(C)c(C)c3)c2cc1OC (stereo not shown) | 22.69 % of PPV |  |  |  |  |
| COc1cc2ccncc2cc1OC [DMIQ, reference compound] | 0 % of PPV | 0 % of PPV | inactive | inactive |  |
| CN(C)C(=N)N=C(N)N [Metformin] |  |  |  |  | effective at inhibiting oxygen consumption |
